Key:
iPS cells = test: Growth of iPS cells in the presence of doxycycline (dose response); assay type: cell-based, human; settings: FIG. 7B
Description: The media conditions to maintain human iPSCs have all been previously described (40). For passaging the cells Accutase (StemCell Technologies, Vancouver, BC) was used for 5 minutes at 37° C. and then stopped with iPSC media containing 10 μM Y-27632 (Selleckchem, Houston, Tex.) (41). The dissociated IPSCs were seeded on new plates with media containing Y-27632, and after 24 hours replaced with media alone. iPSC media was changed daily.
We also did a complete dose-response curve on the growth of iPS cells in the presence of doxycycline up to 30 μg/mL, with toxicity observed beginning at the 10 μg/mL level (FIG. 7B). Beyond effects on iPS cells, we further confirmed the ability of doxycycline to support the induction of iPSCs to endoderm. For this we performed immunohistochemical staining for markers of endoderm, including CXCR4, SOX17, FOXA2, and HNF16 (FIG. 2A and 2B). […] More importantly, the ML1 protocol allowed induction of complete monolayers of endoderm from virtually any iPSC. Compared to many of the other protocols that we tested for poorly differentiating iPS cell lines(6, 8), we could actually differentiate most lines using the ML1 protocol, but only a fraction of them using the other protocols. […]

iPSC lines = assay type: cell-based
Description: Induction of Definitive Endoderm (days 1-7). iPSCs were plated on 6-, 12-, or 96-well Matrigel-coated plates at different densities for differentiation in iPSC media containing 10 μM Y-27632 and 2 μM doxycycline. For example, typical plating density in a single well of a 6-well plate was 500,000 cells or 20,000 cells per well for 96-well plates. The differentiation process consisted of one week of RPMI media supplemented with Gem21 NeuroPlex without insulin at 1× (supplied at 50×, Gemini Bio-Products West Sacramento, Calif., catalog #400-962, or supplemented with Gibco B27 without insulin at 1×), Glutagro at 1× (Corning, Manassas, Va., catalog #25-015-CI, non-essential amino acids at 1× (Gibco, catalog #11-140-050), sodium butyrate (0.5 mM, Sigma Aldrich, catalog #B5887) and recombinant human Activin A (100 ng/mL, Peprotech, Rocky Hill, N.J., catalog #120-14E) for 7 days. On day 1, 2% KnockOut Serum Replacement (KSR; Gibco Catalog #10828028), CHIR-99021 (10 ng/mL, Selleckchem catalog #S2924), PI-103 (10 ng/mL,Selleckchem catalog #S1038), recombinant human BMP4 (10 ng/mL, Peprotech catalog #120-05ET) and FGF2 (20 ng/mL, Peprotech catalog #100-18B) were added to the media. On day 2, 1% KSR, PI-103 (10 ng/mL) and BMP4 (10 ng/mL) and FGF2 (20 ng/mL) and on day 3, 0.2% KSR and PI-103 (10 ng/mL) were added to the media. Doxycycline hyclate (Acros Organics catalog #446061000) was added throughout definitive endoderm induction starting on day 0 (passage day) at various concentrations, as described herein, with a standard concentration being 2 μM. These steps can be performed at normal room oxygen at about 20% or at low oxygen between 4 and 6%.

Cleaved Caspase 3 (CC3) = test: Cleaved caspase 3 immunofluorescence during endoderm induction; assay type: cell-based, human; settings: 48 hours of induction, 4 different cell-line experiments
Description: Immunohistochemistry and Cell staining. iPSCs, endodermal cells and iHeps were fixed using 4% paraformaldehyde for 15 minutes, permeabilized using 0.1% Triton X-100 for 10 minutes followed by 3× PBS (phosphate buffered saline, Corning Life Sciences) rinses and blocking with 1.5% bovine serum albumin for 1 hour. Samples were incubated with primary antibody overnight. […]
As a first step to understand the mechanism by which doxycycline was affecting induction of iPSCs into endoderm, we explored whether doxycycline was affecting proliferation versus cellular death. […] After quantification, we noted both significant Ki-67 staining and cleaved caspase 3 (CC3) staining, as expected (FIG. 3A). […]

C[C@H]1c2cccc(O)c2C(=O)C2=C(O)[C@]3(O)C(=O)C(C(N)=O)=C(O)[C@@H](N(C)C)[C@@H]3[C@@H](O)[C@@H]21 [doxycycline]
titration of doxycycline, outcome in words (iPS cells): an optimal level of doxycycline and a toxic level | concentration at which toxicity begins (iPS cells; dose-response up to 30 μg/mL): 10000 ng/mL | concentration giving total cell death (iPSC lines; by the third day of induction): > 10000 ng/mL | concentration tolerated by the cells (iPSC lines; endoderm induction): up to 10 μg/mL | decrease in CC3 staining (Cleaved Caspase 3 (CC3)): greater than 50%

From US20230002736A1, “ENDODERM DIFFERENTIATION FROM PLURIPOTENT STEM CELL LINES” (priority 2019, published 2023)
